Measurements from patent US12692221B2 (priority 2024, dated 2026).
In brackets after ≈: the same amount, converted by molar mass.

Legend:
[1] = Aqueous solubility by sequential dilution in water, microscopic inspection; conditions: for aqueous solubility relative to reference compound 2C-iBu: under the same conditions; for solubility: water, thermodynamic from solid
CCK1 (CCKA) (h) = biological target: T1, CCK1 (CCKA) (h) (Homo sapiens, UniProt P32238); assay: Radioligand binding CCK1 (CCKA) (h) (agonist radioligand), [^125I]CCK-8s, CHO cells; conditions: CCK1 (CCKA) (h) (agonist radiolig.)
T1 construct: expressed in transfected cells; host or cells: CHO cells
T1 sequence (P32238 1-428): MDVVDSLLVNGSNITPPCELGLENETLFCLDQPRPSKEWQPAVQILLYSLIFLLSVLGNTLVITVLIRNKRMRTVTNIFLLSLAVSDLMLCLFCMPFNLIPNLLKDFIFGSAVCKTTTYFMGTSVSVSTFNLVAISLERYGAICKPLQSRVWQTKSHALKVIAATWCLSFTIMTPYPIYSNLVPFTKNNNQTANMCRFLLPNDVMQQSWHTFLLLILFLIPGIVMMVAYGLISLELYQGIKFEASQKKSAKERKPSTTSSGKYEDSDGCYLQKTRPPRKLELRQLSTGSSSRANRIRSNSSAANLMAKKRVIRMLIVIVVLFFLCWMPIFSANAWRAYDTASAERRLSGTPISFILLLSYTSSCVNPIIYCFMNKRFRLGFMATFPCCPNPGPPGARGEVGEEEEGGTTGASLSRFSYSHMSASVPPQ
Description: (§1) Methods—Binding Assays: In vitro binding assays were performed using human recombinant receptors expressed in mammalian cell lines. Receptors were expressed in either HEK-293 or CHO cells depending on the target, and assay conditions (radioligand, concentration, nonspecific competitor, temperature, and incubation time) were optimized for each receptor. All assays were conducted in triplicate, and specific binding was quantified by scintillation counting as the detection method for each listed assay.
(§2) Specific binding was expressed as a percentage of control-specific binding, and percent inhibition was calculated using the formula in Ex. 8 above. Half-maximal inhibitory concentrations (IC50) were determined by non-linear regression analysis of the inhibition curves using the Hill equation (see Ex. 8). Inhibition constants (Ki) were calculated using the Cheng-Prusoff equation (see Ex. 8). KD values used in these calculations had been previously established for each receptor under the assay conditions (see Table 6). Data analysis was performed using software developed at Cerep and validated against SigmaPlot 4.0 for Windows.

MAO-A = biological target: T2, MAO-A (Rattus norvegicus, UniProt P21396); assay: Radioligand binding MAO-A (antagonist radioligand), [^3H]Ro 41-1049, rat cerebral cortex
T2 construct: from tissue; host or cells: rat cerebral cortex
T2 sequence (P21396 1-526): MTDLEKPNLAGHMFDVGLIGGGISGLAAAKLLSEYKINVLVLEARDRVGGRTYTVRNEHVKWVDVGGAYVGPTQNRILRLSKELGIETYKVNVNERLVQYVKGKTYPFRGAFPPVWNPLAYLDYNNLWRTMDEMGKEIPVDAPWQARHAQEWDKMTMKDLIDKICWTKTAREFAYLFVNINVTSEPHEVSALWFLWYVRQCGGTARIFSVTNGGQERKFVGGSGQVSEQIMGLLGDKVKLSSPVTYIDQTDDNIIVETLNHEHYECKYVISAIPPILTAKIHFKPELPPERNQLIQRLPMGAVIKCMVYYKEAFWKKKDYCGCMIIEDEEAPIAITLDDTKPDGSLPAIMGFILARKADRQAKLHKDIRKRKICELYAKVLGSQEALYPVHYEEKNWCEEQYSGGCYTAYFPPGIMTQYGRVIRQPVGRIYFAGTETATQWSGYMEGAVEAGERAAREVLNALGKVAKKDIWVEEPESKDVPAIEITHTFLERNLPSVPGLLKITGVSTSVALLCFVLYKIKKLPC

M1 (h) = biological target: T3, M1 (h) (Homo sapiens, UniProt P11229); assay: Radioligand binding M1 (h) (antagonist radioligand), [^3H]pirenzepine, CHO cells
T3 construct: expressed in transfected cells; host or cells: CHO cells
T3 sequence (P11229 1-460): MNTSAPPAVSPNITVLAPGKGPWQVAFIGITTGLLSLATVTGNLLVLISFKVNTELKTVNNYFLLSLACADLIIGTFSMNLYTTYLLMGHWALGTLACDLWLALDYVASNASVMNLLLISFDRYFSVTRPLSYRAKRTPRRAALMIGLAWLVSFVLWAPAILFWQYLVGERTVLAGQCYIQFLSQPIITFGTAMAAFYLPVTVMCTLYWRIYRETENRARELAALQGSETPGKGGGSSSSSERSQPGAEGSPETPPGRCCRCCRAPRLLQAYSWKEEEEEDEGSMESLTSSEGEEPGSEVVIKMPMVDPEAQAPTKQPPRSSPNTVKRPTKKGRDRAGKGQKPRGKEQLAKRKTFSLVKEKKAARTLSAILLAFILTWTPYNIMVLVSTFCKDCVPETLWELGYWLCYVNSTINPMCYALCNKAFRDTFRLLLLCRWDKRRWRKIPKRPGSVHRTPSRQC
Description: as §1, §2

[2] = biological target: T4, Potassium Channel hERG (human) (Homo sapiens, UniProt Q12809); assay: Radioligand binding Potassium Channel hERG (human), [^3H]Dofetilide, HEK-293 cells; conditions: Potassium Channel hERG(h) ([3H] Dofetilide)
T4 construct: expressed in transfected cells; host or cells: HEK-293 cells
Description: as §1, §2

MDR1 = assay: MDR1-MDCKII bidirectional permeability assay; type: in vitro ADME, Canine; conditions: dog; for recovery at 60 min / recovery at 40 min: MDCK-MDR1, pH 7.4; for recovery at 60 min / Papp A→B at 60 min: apical-to-basolateral; for recovery at 60 min: read-out: A-B Percent Recovery; for recovery at 40 min / Papp B→A at 40 min: basolateral-to-apical; for recovery at 40 min: read-out: B-A Percent Recovery; for Papp A→B at 60 min / Papp B→A at 40 min: MDCK-MDR1, HBSS pH 7.4, 37° C.
Description: Methods: In vitro permeability studies were performed using confluent monolayers of MDR1-transfected Madin-Darby Canine Kidney (MDR1-MDCKII) cells cultured under standard conditions. Cells were seeded onto permeable supports and maintained until they formed tight monolayers suitable for bidirectional transport studies. The assay was conducted at 37° C. using Hanks' balanced salt solution (HBSS) adjusted to pH 7.4 on both the apical and basolateral sides. For apical-to-basolateral (A-B) permeability, samples were collected at 0 and 60 minutes, whereas for basolateral-to-apical (B-A) permeability, samples were collected at 0 and 40 minutes. The concentration of each compound in the donor and receiver chambers was determined by HPLC-MS/MS, and all results were expressed in terms of peak area.
The apparent permeability coefficient (Papp) for each compound was calculated using the formula:
[formula] where VR was the volume of the receiver chamber, CR,end was the concentration of the compound in the receiver chamber at the final time point, At was the incubation time, and A was the surface area of the cell monolayer. The midpoint donor concentration (CD,mid) was calculated as the average of the donor concentrations at time 0 and the end time point, while CR,mid was calculated as one-half of CaR,end.
Compound recovery was also evaluated using the following formula:
[formula] where VD and VR were the volumes of the donor and receiver chambers, respectively, CD,end and CR,end were the compound concentrations at the final time point in their respective compartments, and CD0 was the initial concentration in the donor chamber. Monolayer integrity was assessed following the permeability assay using fluorescein as a paracellular marker compound. Fluorescein was added to the apical chamber and sampled in the basolateral chamber after incubation. […] Only data from wells that met this integrity threshold were included in the final analysis.

5-HT2B (h) = biological target: T5, 5-HT2B (h) (Homo sapiens, UniProt P41595); assay: Radioligand binding 5-HT2B (h) (agonist radioligand), [^125I](±)DOI, CHO cells
T5 construct: host or cells: CHO cells
T5 sequence (P41595 whole entry): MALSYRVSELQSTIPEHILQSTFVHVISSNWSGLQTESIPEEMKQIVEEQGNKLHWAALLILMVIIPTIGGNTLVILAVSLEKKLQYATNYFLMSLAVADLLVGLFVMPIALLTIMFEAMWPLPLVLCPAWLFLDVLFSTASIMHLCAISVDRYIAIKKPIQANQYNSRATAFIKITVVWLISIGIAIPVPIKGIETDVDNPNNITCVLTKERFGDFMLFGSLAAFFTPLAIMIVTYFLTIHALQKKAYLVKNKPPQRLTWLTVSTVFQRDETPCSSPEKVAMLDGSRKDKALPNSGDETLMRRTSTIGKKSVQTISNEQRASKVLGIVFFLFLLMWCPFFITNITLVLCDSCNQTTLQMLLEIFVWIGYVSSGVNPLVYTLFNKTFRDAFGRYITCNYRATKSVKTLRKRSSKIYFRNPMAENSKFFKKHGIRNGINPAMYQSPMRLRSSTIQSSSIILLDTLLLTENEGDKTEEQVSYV

T4 sequence (Q12809 whole entry): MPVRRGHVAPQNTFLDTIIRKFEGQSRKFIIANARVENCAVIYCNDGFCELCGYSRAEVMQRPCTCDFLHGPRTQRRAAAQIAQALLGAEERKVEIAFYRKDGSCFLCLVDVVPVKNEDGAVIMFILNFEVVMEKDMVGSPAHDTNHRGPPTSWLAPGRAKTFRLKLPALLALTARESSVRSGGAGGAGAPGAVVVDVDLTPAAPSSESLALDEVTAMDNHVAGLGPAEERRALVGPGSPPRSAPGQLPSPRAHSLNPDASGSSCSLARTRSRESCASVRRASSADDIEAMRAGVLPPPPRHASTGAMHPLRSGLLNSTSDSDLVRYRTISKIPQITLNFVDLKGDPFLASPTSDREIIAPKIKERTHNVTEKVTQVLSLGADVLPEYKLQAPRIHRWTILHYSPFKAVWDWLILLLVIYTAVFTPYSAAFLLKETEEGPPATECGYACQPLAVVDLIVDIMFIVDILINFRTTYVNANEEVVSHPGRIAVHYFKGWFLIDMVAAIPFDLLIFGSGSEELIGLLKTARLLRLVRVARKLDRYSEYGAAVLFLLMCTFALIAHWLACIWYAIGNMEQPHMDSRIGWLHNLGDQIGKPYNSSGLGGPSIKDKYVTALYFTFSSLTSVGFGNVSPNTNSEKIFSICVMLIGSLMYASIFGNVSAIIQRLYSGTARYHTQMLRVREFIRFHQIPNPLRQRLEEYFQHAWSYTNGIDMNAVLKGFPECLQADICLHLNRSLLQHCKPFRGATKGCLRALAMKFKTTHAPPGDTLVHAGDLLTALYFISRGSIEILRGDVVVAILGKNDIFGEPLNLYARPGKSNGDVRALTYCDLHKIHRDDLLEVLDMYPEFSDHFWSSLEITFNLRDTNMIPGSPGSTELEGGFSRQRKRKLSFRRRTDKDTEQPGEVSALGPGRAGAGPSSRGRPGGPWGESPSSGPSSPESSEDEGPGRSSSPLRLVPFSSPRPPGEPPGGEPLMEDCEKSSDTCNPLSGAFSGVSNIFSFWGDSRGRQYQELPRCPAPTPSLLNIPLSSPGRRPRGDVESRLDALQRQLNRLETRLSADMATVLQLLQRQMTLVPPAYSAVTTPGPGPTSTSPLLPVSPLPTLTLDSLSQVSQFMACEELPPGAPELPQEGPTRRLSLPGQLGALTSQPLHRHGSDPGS

Row | SMILES | aqueous solubility relative to reference compound 2C-iBu [1] | solubility [1] | Mean Percent Inhibition of Control Specific Binding (CCK1 (CCKA) (h)) | Mean Percent Inhibition of Control Specific Binding (MAO-A) | Mean Percent Inhibition of Control Specific Binding (M1 (h)) | Mean Percent Inhibition of Control Specific Binding [2] | recovery at 60 min (MDR1) | recovery at 40 min (MDR1) | Papp A→B at 60 min (MDR1) | Papp B→A at 40 min (MDR1) | Mean Percent Inhibition of Control Specific Binding (5-HT2B (h); 5-HT2B(h) (agonist radioligand)) | IC50 (5-HT2B (h)) | Ki (5-HT2B (h)) | nH (5-HT2B (h); 5-HT2B, Hill coefficient) | aqueous solubility relative to reference compound 2C-iBu ([1]; listed as Compound 8)
1 | COCc1cc(CCN)c(O)cc1CC(C)C [2CiBu-2OH-5MM, 2-(2-aminoethyl)-5-isobutyl-4-(methoxymethyl)phenol] | significantly higher aqueous solubility | 110 mM (≈ 26.2 mg/mL) | −0.1% | 7.0% | 4.9% | 9.7% |  |  |  |  |  |  |  |  | 
2 | COCCc1cc(CCN)c(OC)cc1Br [Compound 2CB-5ME, reference compound] |  |  | 3.3% | 5.4% | 55.4% | 8.5% | 75% | 79% | 32.9 ×10⁻⁶ cm/s | 13.8 ×10⁻⁶ cm/s | 104.1% |  |  |  | 
3 | COCc1cc(CCN)c(OC)cc1Br [Compound 2CB-5MM, 2-(4-bromo-2-methoxy-5-(methoxymethyl)phenyl)ethan-1-amine] |  | 43.5 mM (≈ 11.9 mg/mL) | −11.5% | 9.3% | 43.4% | 13.9% | 78% | 83% | 29.9 ×10⁻⁶ cm/s | 14.5 ×10⁻⁶ cm/s |  |  |  |  | 
4 | COCc1cc(CCN)c(OC)cc1CC(C)C [Compound 2CiBu-5MM, 2-[4-isobutyl-2-methoxy-5-(methoxymethyl)phenyl]ethanamine] | significantly higher aqueous solubility | 365 mM (≈ 91.7 mg/mL) | 12.2% | 4.1% | 52.6% | 4.4% | 76% | 79% | 24.8 ×10⁻⁶ cm/s | 13.3 ×10⁻⁶ cm/s |  | 270 nM | 130 nM | 0.7 | over ten times more soluble
